Reference: patent US12473249B2, “Aromatic compounds and pharmaceutical uses thereof” (BASF AS, priority 2018, dated 2025)
Marks after values point to notes of the source that are not given here.

Experiments:
Assay type in all cases: in vivo, mouse
[1] = test system: APOE*3Leiden mice; assay: Plasma lipids in high-fat diet fed APOE*3Leiden mice; conditions: for triglyceride levels over 4 weeks: further study with reference compounds, 0.3 mmol/kg bw/day, FIG. 31
Method: The APOE*3Leiden mouse expresses a variant of the human apolipoprotein E3 (APOE3), the APOE*3Leiden, in addition to the human apolipoprotein C1 (APOC1).
Studies were performed in APOE*3Leiden mice (13-15 weeks old) placed on a semi-synthetic high fat diet (24% fat w/w) with 0.25% cholesterol w/w. After a 4-week run-in period, mice were sub-divided into groups of 5 mice each and administration of Compound A, Compound B, or vehicle alone was started. Both Compound B and Compound A were administered at a dose of 0.3 mmol/kg bw/day via diet. Sunflower oil (10 ml v/w) was used as a vehicle to facilitate mixing. After 4 weeks of treatment mice were sacrificed by C02 asphyxiation and plasma cholesterol and triglycerides were measured using commercially available kits (Roche*/Hitachi©).
In a further study, performed as described above, the effects of Compound A, Compound B, and Compound C were compared with the effects of Reference Compound 1 ((Z)-3-(pent-2-en-1-yloxy)benzoic acid) and Reference Compound 2 ((Z)-4-(pent-2-en-1-yloxy)benzoic acid) on triglyceride levels. […] The results of this study are described in Example 17.

[2] = test system: ob/ob AMLN mice; assay: Glycemic control (oral glucose tolerance test, fasting glucose and insulin) in ob/ob AMLN mice; conditions: 0.3 mmol/kg bw day
Method: (§1) ob/ob mice are consistently fibrosis (liver) prone when cholesterol (2%) and 40% fat (containing 18% trans-fatty acids) and 20% fructose are added to a high-caloric diet (i.e., AMLN diet). ob/ob mice on AMLN diet (termed ‘ob/ob AMLN mice’) develop steatohepatitis and fibrosis within a shorter timeframe (<12 weeks) compared with wild-type C57BL/6 mice (AMLN mice) fed the same diet. ob/ob AMLN mice provide an obese diet-induced model of NASH that also allows the study of effects on glycemic control.
Thirty male ob/ob mice (5 weeks old) were fed the AMLN diet for 15 weeks then randomised into 3 groups of 10 mice/group to receive Compound B or Compound A (both at 0.3 mmol/kg bw day) or no treatment (vehicle) for a further 4 weeks. Assessment of the hepatic expression of key genes regulating plasma lipid concentrations (LDLr), hepatic fibrosis (collA1), bile acid transport/re-uptake (Slc51b and Slc10a2) and inflammation (CD68) was made via RNA sequencing at 4 weeks. […] An additional group of mice (n=5) were also treated with a PPAR-γ agonist (pioglitazone, 30 mg/kg bw day) was also included to compare effects upon bodyweight.

[3] = test system: hepatic expression of key genes; assay: Hepatic target gene expression via RNA sequencing in ob/ob AMLN mice; conditions: 0.3 mmol/kg bw day, 4 weeks treatment
Method: as §1
(§2) Thirty male ob/ob mice (5 weeks old) were fed the AMLN diet for 15 weeks then randomised into 3 groups of 10 mice/group to receive Compound B or Compound A (both at 0.3 mmol/kg bw day) or no treatment (vehicle) for a further 4 weeks. Assessment of the hepatic expression of key genes regulating plasma lipid concentrations (LDLr), hepatic fibrosis (collA1), bile acid transport/re-uptake (Slc51b and Slc10a2) and inflammation (CD68) was made via RNA sequencing at 4 weeks. To assess the effects of Compound B and Compound A on glycemic control, an oral glucose tolerance test (OGTT) was also performed at 3 weeks. An additional group of mice (n=5) were also treated with a PPAR-γ agonist (pioglitazone, 30 mg/kg bw day) was also included to compare effects upon bodyweight.

[4] = Relative bodyweight in ob/ob AMLN mice; conditions: 0.3 mmol/kg bw day, 4 weeks treatment, FIG. 11
Method: as §1, §2

[5] = test system: C57BL/6 mice; assay: Hepatic steatosis and organ mass in oral PN diet fed C57BL/6 mice, subsequent experiment at two dosages (H&E); conditions: 19 days
Description: Male C57BL/6 mice, 6 to 8 weeks old at initiation of the experiments, were used for all experimental groups. Mice were fed either an ad libitum diet of standard rodent chow (calorie composition: 26% protein, 14% fat, 60% carbohydrates) and water or a parenteral nutrition (PN) solution that mimics the PN diet used in neonatal intensive care units. The PN solution was a fat-free, high-carbohydrate liquid diet (20% dextrose, 2% essential and nonessential amino acids, 0.2% pediatric trace elements, 0.5% pediatric multivitamins, 30 mEq of sodium, 20 mEq of potassium, 15 mEq of calcium (as calcium gluconate), 10 mEq of magnesium, 10 mEq of phosphate, 5 mEq of acetate, and 30 mEq of chloride per liter) administered as a single 50 mL bottle per cage which mice consumed ad libitum. […] Prince et al., JPEN J Parenter Enteral Nutr., 2014; 38(5): 608-616.
In a subsequent experiment, both Compound A and Compound B were tested at two dosages. The results of this experiment are described in Example 15.
Male C57BL/6 mice, 6 to 8 weeks old at initiation of the experiments, were used for all experimental groups. One group was fed an ad libitum diet of standard rodent chow and water. The group fed standard rodent chow received no additional treatments during the experimental period and served as a negative control group. Seven other groups (10 mice per group) were fed the PN solution described above ad libitum.
Of the seven groups that received the PN diet, each group received one of the following orogastric protocols administered every other day over 19 days: • (1) Saline: saline solution administered isovolumetric with the Omegaven® group; • (2) MCT: medium-chain triglyceride oil (MCT) (Nestle™ HealthCare Nutrition, Florham Park, NJ), at a dose of 7.4 g of fat/kg body weight; • (3) Omegaven®: Omegaven® (commercial fish oil lipid emulsion) at a dose of 2.4 g fat/kg body weight; • (4) Compound A LOW: Compound A at a dose of 0.3 mmol/kg bw day (diluted in MCT to 0.0375 mmol/mL, resulting in administration of 7.4 g of MCT/kg weight); • (5) Compound A HI: Compound A at a dose of 0.6 mmol/kg bw day (diluted in MCT to 0.075 mmol/mL, resulting in administration of 7.4 g of MCT/kg weight); • (6) Compound B LOW: Compound B at a dose of 0.3 mmol/kg bw day (diluted in MCT to 0.0375 mmol/mL, resulting in administration of 7.4 g of MCT/kg weight); and • (7) Compound B HI: Compound B at a dose of 0.6 mmol/kg bw day (diluted in MCT to 0.075 mmol/mL, resulting in administration of 7.4 g of MCT/kg weight).
After 19 days of treatment, organs were harvested, including the liver, kidney, and spleen, which were analyzed for relative weight between each group. Livers were also fixed and frozen on dry ice, then stored at −80° C. for hematoxylin and eosin (H&E) stain analysis and Oil Red O analysis.

[6] = high-fat high-cholesterol diet, 4 weeks treatment
[7] = high-fat high-cholesterol diet, 4 weeks treatment, dose 0.1 mmol/kg bw/day
[8] = high-fat high-cholesterol diet, 4 weeks treatment, dose 0.3 mmol/kg bw/day
[9] = oral PN diet, high and low dosages, FIG. 18

body mass vs chow-fed or PN-fed saline groups [5, 9]	liver/body mass vs chow-fed or PN-fed saline groups [5, 9]	spleen/body mass vs chow-fed or PN-fed saline groups [5, 9]	Structure (SMILES)	plasma TG versus vehicle [1, 6]	total plasma cholesterol versus vehicle [1, 6]	Reduction in plasma TG vs control (%) [1, 7]	Reduction in plasma cholesterol vs control (%) [1, 7]	Reduction in plasma TG vs control (%) [1, 8]	Reduction in plasma cholesterol vs control (%) [1, 8]	total plasma glucose (area-under-the-curve from 0-240 mins) versus vehicle in response to an oral glucose load ([2]; after 3 weeks treatment, FIG. 1)	plasma glucose at 30- and 60-mins versus vehicle in response to an oral glucose load ([2]; after 3 weeks treatment, FIG. 2)	fasting plasma insulin versus vehicle ([2]; after 4 weeks treatment, FIG. 3)	fasting plasma glucose versus vehicle ([2]; after 4 weeks treatment, FIG. 4)	hepatic expression of Coll al (collagen1a1) versus vehicle ([3]; FIG. 5)	expression of hepatic LDLr versus vehicle ([3]; FIG. 12)	relative bodyweight versus vehicle [4]	development of steatosis induced by an oral PN diet (H&E stain in isolated liver sections) ([5]; 0.3 and 0.6 mmol/kg bw day in MCT by orogastric gavage, FIGS. 14-17)	triglyceride levels over 4 weeks [1]
not significantly different	not significantly different	not significantly different	CC/C=C\COc1cccc(C(=O)O)c1C [Compound B, (Z)-2-methyl-3-(pent-2-en-1-yloxy)benzoic acid]	significantly reduce	significantly reduce	45** %	24** %	63** %	27** %	significantly reduce	significantly reduce	reduce	significantly reduce	significantly reduce	significantly increase	no effect	prevented the development of steatosis	
			CC/C=C\COc1cccc(C(=O)O)c1 [Reference Compound 1, (Z)-3-(pent-2-en-1-yloxy)benzoic acid, reference compound]															did affect
			CC/C=C\COc1ccc(C(=O)O)cc1 [Reference Compound 2, (Z)-4-(pent-2-en-1-yloxy)benzoic acid, reference compound]															did affect
